This passage reports inhibition results from the Kinase Knowledgebase extract (Sharma et al. 2016).

The experiment concerns the target CDK2 (UniProt P24941). Description: Enzyme Assay. The following applies: concentration not given here.
`COc1cc(C(=O)Nc2scc(C)c2C(N)=O)cc(OC)c1C` gave an inhibition of 100%.
For `CN1CCc2c(sc(NC(=O)c3cc4cc(Cl)ccc4[nH]3)c2C(N)=O)C1` the value was 100%; for `CC(c1ccccc1)c1cc(C(N)=O)c(NC(=O)c2ccc3ccccc3n2)s1` (centres undefined), 100%.
For `CC(=O)NC(=O)C1CCCN1c1sc(-c2ccccc2)cc1C(N)=O` (centres undefined) the value was 100%; for `NC(=O)c1c(NC(=O)C2(C(N)=O)CC2)sc2c1CCCC2`, 100%; for `CC(=O)Nc1ccc(Br)cc1C(=O)Nc1sc2c(c1C(N)=O)CCN(C)C2`, 100%.
For `CC(C)C(=O)Nc1sc2c(c1C(N)=O)CCCC2` the value was 100%; for `Cc1ccoc1C(=O)Nc1sc2c(c1C(N)=O)CCCC2`, 100%; for `CC(c1ccccc1)c1cc(C(N)=O)c(NC(=O)CCC(=O)c2ccccc2)s1` (centres undefined), 100%.
The compound `Cc1sc(NC(=O)c2cc(Cl)ccc2Cl)c(C(N)=O)c1C` had an inhibition of 100%.
For `COc1ccc(C)c(C(=O)Nc2sc(Cc3ccccc3)cc2C(N)=O)c1` the value was 100%.
Under `Cc1sc(NC(=O)/C=C\c2ccc3c(c2)OCO3)c(C(N)=O)c1C` stands 100%; under `NC(=O)c1cc(-c2ccccc2)sc1NC(=O)c1ccc(Cl)nc1`, 100%; under `Cc1sc(NC(=O)Cc2cn(C)c3ccccc23)c(C(N)=O)c1C`, 100%.
Under `CN1CCc2c(sc(NC(=O)C(Cc3ccccc3)NC(=O)c3ccccc3)c2C(N)=O)C1` (centres undefined) stands 100%.
The compound `CC(=O)NC(Cc1c[nH]cn1)C(=O)Nc1sc2c(c1C(N)=O)CCN(C)C2` (centres undefined) returned an inhibition of 100%.
For `Cc1ccc(S(=O)(=O)NCC(=O)Nc2sc3c(c2C(N)=O)CCN(C)C3)cc1` the value was 100%; for `COc1ccc(C(=O)Nc2sc(C)c(C)c2C(N)=O)cc1Cl`, 100%.
For `CC(c1ccccc1)c1cc(C(N)=O)c(NC(=O)c2nccc3ccccc23)s1` (centres undefined) the value was 100%; for `COc1ccc2cc(C(=O)Nc3scc(C)c3C(N)=O)[nH]c2c1`, 100%.
`COc1ccc(C(=O)Nc2sc(-c3ccccc3)cc2C(N)=O)cc1` gave an inhibition of 100%.
For `Cc1oncc1C(=O)Nc1sc2c(c1C(N)=O)CCCC2` the value was 100%; for `CC(c1ccccc1)c1cc(C(N)=O)c(NC(=O)c2ccc(O)c(Cl)c2)s1` (centres undefined), 100%.
Under `NC(=O)c1cc(-c2ccccc2)sc1NC(=O)Cc1cccc(O)c1` stands 100%; under `CN1CCc2c(sc(NC(=O)CCCc3c[nH]c4ccccc34)c2C(N)=O)C1`, 100%; under `CC(=O)NC(C(=O)Nc1scc(C)c1C(N)=O)c1ccccc1` (centres undefined), 100%.
`CC(C)c1cc(C(N)=O)c(NC(=O)CCNC(N)=O)s1` yielded an inhibition of 100%.
Under `COc1cccc(C(=O)Nc2sc(Cc3ccccc3)cc2C(N)=O)c1O` stands 100%.
Under `COc1cc(CC(=O)Nc2scc(C)c2C(N)=O)cc(OC)c1` stands 100%; under `Cc1sc(NC(=O)c2ccc(Cl)c(Cl)c2)c(C(N)=O)c1C`, 100%; under `Cc1csc(NC(=O)c2nn(-c3ccccc3)nc2C)c1C(N)=O`, 100%.
For `NC(=O)c1c(NC(=O)c2cccs2)sc2c1CCCC2` the value was 100%; for `NC(=O)c1cc(-c2ccccc2)sc1NC(=O)C1(c2ccccc2)CC1`, 100%.
`Cc1sc(NC(=O)C2(c3ccccc3)CCCC2)c(C(N)=O)c1C` had an inhibition of 100%.
Under `CNC(=O)CN(C(=O)c1ccccc1)c1scc(C)c1C(N)=O` stands 100%; under `CC(C)c1cc(C(N)=O)c(NC(=O)/C=C/c2cccnc2)s1`, 100%; under `COc1ccc(OC)c(C(=O)Nc2sc(C)c(C)c2C(N)=O)c1`, 100%.
`CN1CCc2c(sc(NC(=O)Cc3c[nH]c4ccc(F)cc34)c2C(N)=O)C1` had an inhibition of 100%.
For `COc1cccc(OC)c1C(=O)Nc1sc(C)c(C)c1C(N)=O` the value was 100%; for `CN1CCc2c(sc(NC(=O)c3cccc(I)c3)c2C(N)=O)C1`, 100%.
For `CC(NC(=O)C(C)Nc1sc(-c2ccccc2)cc1C(N)=O)C(=O)O` (centres undefined) the value was 100%; for `NC(=O)c1cc(-c2ccccc2)sc1NC(=O)Cc1ccccc1F`, 100%.
For `CC(C)c1cc(C(N)=O)c(NC(=O)/C=C/c2c[nH]cn2)s1` the value was 100%; for `CC(c1ccccc1)c1cc(C(N)=O)c(NC(=O)c2cccc3cccnc23)s1` (centres undefined), 100%.
As to `CC(=O)N(CC(N)=O)c1sc2c(c1C(N)=O)CCCC2`, the inhibition was 100%.
For `Cc1csc(NC(=O)C2c3ccccc3-c3ccccc32)c1C(N)=O` the value was 100%.
The compound `Cc1ccc(C(=O)Nc2sc(-c3ccccc3)cc2C(N)=O)cc1O` registered an inhibition of 100%.
On to `CC(=O)c1ccccc1C(=O)Nc1sc(-c2ccccc2)cc1C(N)=O`, for which the inhibition was 100%.
`NC(=O)c1cc(-c2ccccc2)sc1NC(=O)C(O)c1ccccc1` (centres undefined) returned an inhibition of 100%.
As for `Cc1cccc(NC(=O)c2ccccc2C(=O)Nc2sc3c(c2C(N)=O)CCN(C)C3)c1`, the inhibition was determined as 100%.
As for `Cc1nocc1C(=O)Nc1sc2c(c1C(N)=O)CCCC2`, the inhibition was 100%.
For `NC(=O)c1c(N2C(=O)CCC2C(N)=O)sc2c1CCCC2` (centres undefined) the value was 100%.
`CC(c1ccccc1)c1cc(C(N)=O)c(NC(=O)c2cnc3ccccc3n2)s1` (centres undefined) had an inhibition of 100%.
`CC(C)c1cc(C(N)=O)c(NC(=O)CCC2CCCC2)s1` yielded an inhibition of 100%.
Under `Cc1sc(NC(=O)c2coc3ccccc3c2=O)c(C(N)=O)c1C` stands 100%; under `CN1CCc2c(sc(NC(=O)Cc3ccc(I)cc3)c2C(N)=O)C1`, 100%; under `CC(C)c1cc(C(N)=O)c(NC(=O)CC2CCCC2)s1`, 100%.
Under `CC1=C(C(=O)Nc2sc(C(C)c3ccccc3)cc2C(N)=O)Cc2ccccc21` (centres undefined) stands 100%.
For `COc1cccc(C(=O)Nc2sc(-c3ccccc3)cc2C(N)=O)c1` the value was 100%; for `CC(c1ccccc1)c1cc(C(N)=O)c(NC(=O)c2cc3ccccc3s2)s1` (centres undefined), 100%; for `CC(C)c1cc(C(N)=O)c(NC(=O)c2ccc(O)cc2)s1`, 100%.
`CC(C)c1cc(C(N)=O)c(NC(=O)C2CCCN2C)s1` (centres undefined) showed an inhibition of 100%.
For `CCC(=O)C(=O)Nc1sc2c(c1C(N)=O)CCCC2` the value was 100%; for `CC(C)c1cc(C(N)=O)c(NC(=O)Cc2ccsc2)s1`, 100%; for `CC(c1ccccc1)c1cc(C(N)=O)c(NC(=O)c2cc(Cl)ccc2O)s1` (centres undefined), 100%.
For `NC(=O)c1c(NC(=O)c2cc[nH]c2)sc2c1CCCC2` the value was 100%; for `CC(c1ccccc1)c1cc(C(N)=O)c(NC(=O)CC2CCc3ccccc32)s1` (centres undefined), 100%.
Under `CC(c1ccccc1)c1cc(C(N)=O)c(NC(=O)c2cccc(Cl)c2O)s1` (centres undefined) stands 100%.
In the case of `Cc1csc(NC(=O)Cc2c[nH]c3ccc(O)cc23)c1C(N)=O`, the inhibition came to 100%.
Under `Cc1csc(NC(=O)CNC(=O)c2ccccc2O)c1C(N)=O` stands 100%; under `Cc1sc(NC(=O)c2cc(Cl)cc(Cl)c2)c(C(N)=O)c1C`, 100%; under `COc1ccc(Cl)cc1C(=O)Nc1sc(C)c(C)c1C(N)=O`, 100%.
Under `Cc1csc(NC(=O)c2cc(-n3cccc3)ccc2O)c1C(N)=O` stands 100%; under `CC(C)c1cc(C(N)=O)c(NC(=O)C2CC3C=CC2C3)s1` (centres undefined), 100%; under `CN(C)c1ccc(C(=O)Nc2sc(Cc3ccccc3)cc2C(N)=O)cc1`, 100%.
Under `NC(=O)c1cc(-c2ccccc2)sc1NC(=O)Cc1ccc(O)cc1` stands 100%; under `COc1cc(C(=O)Nc2sc3c(c2C(N)=O)CCN(C)C3)cc(OC)c1OC`, 100%.
As to `COc1ccc(C(=O)Nc2scc(C)c2C(N)=O)c(OC)c1OC`, the inhibition is 100%.
The compound `NC(=O)c1c(NC(=O)c2c[nH]nc2N)sc2c1CCCC2` had an inhibition of 100%.
Consider `CC(=O)c1ccc(C(=O)Nc2sc(Cc3ccccc3)cc2C(N)=O)cc1`, for which the inhibition was determined as 100%.
`CC(C)c1cc(C(N)=O)c(NC(=O)c2ccccc2F)s1` came in with an inhibition of 100%.
For the compound `COc1cccc(/C=C\C(=O)Nc2scc(C)c2C(N)=O)c1OC`, the inhibition turned out to be 100%.
For `NC(=O)c1cc(Cc2ccccc2)sc1NC(=O)c1c[nH]cn1` the value was 100%; for `CC(C)=CC(=O)Nc1sc2c(c1C(N)=O)CCCC2`, 100%.
Under `Cc1sc(NC(=O)c2cc3cc(O)ccc3[nH]2)c(C(N)=O)c1C` stands 100%; under `Cc1noc(C)c1C(=O)Nc1sc(C(C)C)cc1C(N)=O`, 100%.
In the case of `N#CC1(C(=O)Nc2sc3c(c2C(N)=O)CCCC3)CC1`, the inhibition worked out at 100%.
Regarding `COc1ccccc1/C=C\C(=O)Nc1sc(C(C)c2ccccc2)cc1C(N)=O` (centres undefined), the inhibition came to 100%.
Under `NC(=O)c1c(NC(=O)c2c[nH]cn2)sc2c1CCCC2` stands 100%.
As to `CN1CCc2c(sc(NC(=O)Cc3ccccc3I)c2C(N)=O)C1`, the inhibition was found to be 100%.
In turn, `Cc1ccccc1C(=O)Nc1sc2c(c1C(N)=O)CCCC2` showed an inhibition of 100%.
For `Cc1cc(C(=O)Nc2sc3c(c2C(N)=O)CCCC3)no1` the value was 100%; for `Cc1csc(NC(=O)Cc2csc3ccccc23)c1C(N)=O`, 100%; for `CN1CCc2c(sc(NC(=O)c3cc4c(Cl)cc(Cl)cc4[nH]3)c2C(N)=O)C1`, 100%.
For `CN1CCc2c(sc(NC(=O)/C=C\C(=O)Nc3cccc4ccccc34)c2C(N)=O)C1` the value was 100%; for `Cc1ccc(C(=O)Nc2sc3c(c2C(N)=O)CCCC3)cc1`, 100%; for `CCC(NC(=O)CCl)C(=O)Nc1sc(C)c(C)c1C(N)=O` (centres undefined), 100%.
Under `NC(=O)c1cc(Cc2ccccc2)sc1NC(=O)/C=C\c1cccc(O)c1` stands 100%.
For the compound `NC(=O)c1cc(Cc2ccccc2)sc1NC(=O)/C(F)=C/c1ccccc1`, the inhibition amounted to 100%.

The term inhibition denotes how much of the control response was suppressed.
